The values that follow come from patent US20080234262A1 (Wyeth, priority 2007, published 2008).

Usually IC50 stands for the midpoint of a concentration-inhibition curve.

One assay has as its target PI3K (Homo sapiens, UniProt P42336). Put plainly: Fluorescence polarization assay for PI3K.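 Further: PI3K kinase reaction on PIP2 with ATP, 30-60 min, product sensed by GST-GRP with red probe in fluorescence polarization (mP), controls without enzyme and at zero time.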 Type of assay: biochemical. Particulars: PI3Kα; read-out: PI3Kα IC50. On the technique in general: In fluorescence polarisation assays a small probe gives low polarisation when free and higher when bound to something large.
Another assay relates to prostate line LNCap. Put plainly: In vitro cell culture growth assay (MTS), LNCap.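 Further: viable cell density read by absorbance at 490 nm, growth expressed as percent of vehicle-treated cells on the same plate.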 The settings on record: Homo sapiens, 72 h, LNCap cells, three days after drug treatment. Type of assay: cell-based, human.
Another assay relates to breast line MDA468. Put plainly: In vitro cell culture growth assay (MTS), MDA468. It is filed as cell-based, human. The settings on record: Homo sapiens, 72 h, MDA468 cells, three days after drug treatment. The gist of the method: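 Steps: plate cells; add inhibitors the next day; incubate 3 days; add MTS dye, which viable cells convert metabolically; measure absorbance at 490 nm; calculate percent of control growth relative to vehicle-treated cells in the same plate.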

Sequence of PI3K (P42336 whole entry): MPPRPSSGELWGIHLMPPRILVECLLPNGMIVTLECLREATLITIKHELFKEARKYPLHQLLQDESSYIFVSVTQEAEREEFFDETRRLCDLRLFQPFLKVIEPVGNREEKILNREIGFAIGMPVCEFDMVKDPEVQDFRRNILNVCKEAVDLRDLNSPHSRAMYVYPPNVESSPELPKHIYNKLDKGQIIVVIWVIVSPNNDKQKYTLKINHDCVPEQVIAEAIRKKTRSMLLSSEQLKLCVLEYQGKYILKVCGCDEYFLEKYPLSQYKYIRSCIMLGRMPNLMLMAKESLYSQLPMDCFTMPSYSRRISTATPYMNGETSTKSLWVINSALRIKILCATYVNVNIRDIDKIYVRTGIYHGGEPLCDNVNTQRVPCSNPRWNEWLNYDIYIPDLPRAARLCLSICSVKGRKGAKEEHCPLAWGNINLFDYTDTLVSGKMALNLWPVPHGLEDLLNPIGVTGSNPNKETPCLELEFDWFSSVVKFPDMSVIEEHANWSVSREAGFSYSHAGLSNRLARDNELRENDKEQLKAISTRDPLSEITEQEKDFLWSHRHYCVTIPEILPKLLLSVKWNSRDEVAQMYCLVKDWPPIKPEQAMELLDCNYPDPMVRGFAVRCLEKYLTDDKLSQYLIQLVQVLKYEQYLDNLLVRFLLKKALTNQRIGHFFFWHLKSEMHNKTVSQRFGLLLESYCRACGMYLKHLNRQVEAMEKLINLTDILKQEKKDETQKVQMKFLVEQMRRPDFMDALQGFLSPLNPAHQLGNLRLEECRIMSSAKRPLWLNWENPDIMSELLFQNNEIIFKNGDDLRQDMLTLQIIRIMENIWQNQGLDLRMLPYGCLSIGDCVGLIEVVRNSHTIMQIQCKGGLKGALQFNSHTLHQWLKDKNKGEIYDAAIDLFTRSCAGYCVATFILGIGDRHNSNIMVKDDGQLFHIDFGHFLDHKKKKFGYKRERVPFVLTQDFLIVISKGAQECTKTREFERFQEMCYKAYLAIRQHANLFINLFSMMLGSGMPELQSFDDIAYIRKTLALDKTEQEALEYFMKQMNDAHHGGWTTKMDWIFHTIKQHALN
Sequence of PI3K (P27986 whole entry partner): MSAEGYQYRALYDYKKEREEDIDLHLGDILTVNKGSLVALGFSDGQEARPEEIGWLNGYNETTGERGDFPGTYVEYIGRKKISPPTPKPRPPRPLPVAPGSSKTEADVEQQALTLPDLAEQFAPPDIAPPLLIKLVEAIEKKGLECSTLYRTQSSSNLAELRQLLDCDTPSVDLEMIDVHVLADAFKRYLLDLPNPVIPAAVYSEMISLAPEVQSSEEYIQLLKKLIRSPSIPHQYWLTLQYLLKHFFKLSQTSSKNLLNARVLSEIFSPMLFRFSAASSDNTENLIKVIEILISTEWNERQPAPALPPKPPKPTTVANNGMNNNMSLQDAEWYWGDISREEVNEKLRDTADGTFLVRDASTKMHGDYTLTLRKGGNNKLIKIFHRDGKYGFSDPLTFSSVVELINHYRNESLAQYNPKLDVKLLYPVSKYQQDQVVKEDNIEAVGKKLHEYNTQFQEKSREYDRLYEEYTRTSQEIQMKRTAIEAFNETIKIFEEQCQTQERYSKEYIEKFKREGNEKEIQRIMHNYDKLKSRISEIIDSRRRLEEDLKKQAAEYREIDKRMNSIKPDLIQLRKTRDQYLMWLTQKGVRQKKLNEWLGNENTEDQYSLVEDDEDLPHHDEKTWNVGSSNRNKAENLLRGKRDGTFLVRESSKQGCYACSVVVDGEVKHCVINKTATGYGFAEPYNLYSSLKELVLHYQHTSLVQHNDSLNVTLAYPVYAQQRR

As to `O=C(CCO)Nc1ccc(-c2nc(N3CCOCC3)c3cnn(-c4ccccc4)c3n2)cc1` [Compound 139], the concentration for half-maximal inhibition (IC50) on PI3K stood at 0.134 µM; in the assay with prostate line LNCap (LNCaP), 1.5 µM; in the assay on breast line MDA468, 60 µM.

On to `O=C(Nc1ccc(-c2nc(N3CCOCC3)c3cnn(-c4ccccc4)c3n2)cc1)C1CCNCC1` [Compound 140], for which the half-inhibitory concentration (IC50) at PI3K turned out to be 0.131 µM; in the assay with prostate line LNCap (LNCaP) it was 2.9 µM; with breast line MDA468, 1.3 µM.

As to `c1cc2cc(-c3nc(N4CCOCC4)c4cnn(C5CCC6(CC5)OCCO6)c4n3)ccc2[nH]1` [Compound 142], the figures for the IC50 on PI3K, in the assay with prostate line LNCap (LNCaP) and in the assay with breast line MDA468 were 1.49 µM, 0.32 µM and 2.2 µM, respectively.

On to `O=C1CCC(n2ncc3c(N4CCOCC4)nc(-c4ccc5[nH]ccc5c4)nc32)CC1` [Compound 143, 4-[6-(1H-indol-5-yl)-4-morpholin-4-yl-1H-pyrazolo[3,4-d]pyrimidin-1-yl]cyclohexanone], for which the concentration for half-maximal inhibition (IC50) at PI3K came out at 0.703 µM; in the assay with prostate line LNCap (LNCaP), 0.18 µM; in the assay with breast line MDA468, 1.7 µM.

`NCc1cccc(-c2nc(N3CCOCC3)c3cnn(-c4ccccc4)c3n2)c1` [Compound 144]: the half-inhibitory concentration (IC50) came out at 0.627 µM on PI3K, 2.4 µM in the assay on prostate line LNCap (LNCaP) and 3.8 µM with breast line MDA468.

Regarding `CC(=O)NCc1cccc(-c2nc(N3CCOCC3)c3cnn(-c4ccccc4)c3n2)c1` [Compound 145], the IC50 at PI3K came out at 0.583 µM; in the assay with prostate line LNCap (LNCaP), 5.5 µM; in the assay with breast line MDA468 it was 21 µM.

Turning to `NCc1ccc(-c2nc(N3CCOCC3)c3cnn(-c4ccccc4)c3n2)cc1` [Compound 146], the half-inhibitory concentration (IC50) was 0.457 µM at PI3K, 1.7 µM in the assay on prostate line LNCap (LNCaP) and 4 µM in the assay with breast line MDA468.

As for `CC(=O)NCc1ccc(-c2nc(N3CCOCC3)c3cnn(-c4ccccc4)c3n2)cc1` [Compound 147], the 50% inhibitory concentration (IC50) came out at 0.35 µM at PI3K, 5.6 µM in the assay on prostate line LNCap (LNCaP) and 22 µM with breast line MDA468.

For the compound `CC(=O)Nc1ccc(-c2nc(N3CCOCC3)c3cnn(-c4ccccc4)c3n2)cn1` [Compound 148], the IC50 at PI3K came to 0.162 µM; in the assay with prostate line LNCap (LNCaP), 60 µM; in the assay with breast line MDA468, 60 µM.

As for `CN(C)C1CCC(n2ncc3c(N4CCOCC4)nc(-c4ccc5[nH]ccc5c4)nc32)CC1` (stereo not drawn) [Compound 150], the IC50 turned out to be 1.95 µM at PI3K, 0.3 µM in the assay on prostate line LNCap (LNCaP) and 2.1 µM in the assay with breast line MDA468.

Regarding `c1cc2cc(-c3nc(N4CCOCC4)c4cnn(C5CCC(N6CCCC6)CC5)c4n3)ccc2[nH]1` (stereo not drawn) [Compound 151], the IC50 stood at 1.27 µM on PI3K, 0.52 µM in the assay with prostate line LNCap (LNCaP) and 2.3 µM in the assay with breast line MDA468.

`OC1CCC(n2ncc3c(N4CCOCC4)nc(-c4ccc5[nH]ccc5c4)nc32)CC1` (stereo not drawn) [Compound 152, 4-[6-(1H-indol-5-yl)-4-morpholin-4-yl-1H-pyrazolo[3,4-d]pyrimidin-1-yl]cyclohexanol]: the concentration for half-maximal inhibition (IC50) amounted to 1.13 µM at PI3K, 0.6 µM in the assay on prostate line LNCap (LNCaP) and 2.3 µM in the assay with breast line MDA468.

As for `COc1ccc(NC2CCC(n3ncc4c(N5CCOCC5)nc(-c5ccc6[nH]ccc6c5)nc43)CC2)cc1` (stereo not drawn) [Compound 153], the concentration for half-maximal inhibition (IC50) on PI3K came out at 0.46 µM; with prostate line LNCap (LNCaP), 2 µM; in the assay on breast line MDA468, 6.5 µM.

Regarding `Clc1ccc(-c2nc(N3CCOCC3)c3cnn(C4CCN(Cc5ccccc5)CC4)c3n2)cn1` [Compound 156], the IC50 on PI3K amounted to 0.45 µM; in the assay on prostate line LNCap (LNCaP) it was 3.3 µM; with breast line MDA468, 35 µM.

Consider `Clc1cc(-c2nc(N3CCOCC3)c3cnn(C4CCN(Cc5ccccc5)CC4)c3n2)ccn1` [Compound 157], for which the values for the IC50 on PI3K, in the assay with prostate line LNCap (LNCaP) and in the assay with breast line MDA468 were 1.03 µM, 33 µM and 60 µM, respectively.

`CN(C)CCCn1ncc2c(N3CCOCC3)nc(-c3ccc4[nH]ccc4c3)nc21` [Compound 160]: the 50% inhibitory concentration (IC50) on PI3K turned out to be 6 µM; with prostate line LNCap (LNCaP), 2.8 µM; with breast line MDA468 it was 15 µM.

As for `O=C1CCCN1CCn1ncc2c(N3CCOCC3)nc(-c3ccc4[nH]ccc4c3)nc21` [Compound 161], the results for the IC50 on PI3K, in the assay on prostate line LNCap (LNCaP) and in the assay with breast line MDA468 were 3.51 µM, 14 µM and 60 µM, respectively.

On to `c1cc2cc(-c3nc(N4CCOCC4)c4cnn(CCN5CCNCC5)c4n3)ccc2[nH]1` [Compound 162, 6-(1H-indol-5-yl)-4-morpholin-4-yl-1-(2-piperazin-1-ylethyl)-1H-pyrazolo[3,4-d]pyrimidine], for which the half-maximal inhibitory concentration (IC50) at PI3K is 1.85 µM; in the assay with prostate line LNCap (LNCaP) it was 33 µM; with breast line MDA468, 60 µM.

In the case of `CN(C)CCCn1ncc2c(N3CCOCC3)nc(-c3cccc(O)c3)nc21` [Compound 163], the IC50 at PI3K came to 0.06 µM; in the assay with prostate line LNCap (LNCaP), 1.5 µM; with breast line MDA468 it was 6 µM.

Regarding `O=C1CCCN1CCn1ncc2c(N3CCOCC3)nc(-c3cccc(O)c3)nc21` [Compound 164], the half-maximal inhibitory concentration (IC50) at PI3K worked out at 0.23 µM; in the assay with prostate line LNCap (LNCaP), 5.7 µM; with breast line MDA468, 20 µM.

With `Oc1cccc(-c2nc(N3CCOCC3)c3cnn(CCN4CCOCC4)c3n2)c1` [Compound 165], the IC50 came out at 0.176 µM at PI3K, 3 µM in the assay with prostate line LNCap (LNCaP) and 12 µM in the assay with breast line MDA468.

With `Oc1cccc(-c2nc(N3CCOCC3)c3cnn(CCN4CCNCC4)c3n2)c1` [Compound 166], the results for the IC50 on PI3K, in the assay on prostate line LNCap (LNCaP) and in the assay on breast line MDA468 were 0.045 µM, 5.8 µM and 15 µM, respectively.

`CC(C)(C)OC(=O)N1CCC[C@@H](n2ncc3c(N4CCOCC4)nc(-c4ccc5[nH]ccc5c4)nc32)C1` [Compound 167]: the figures for the 50% inhibitory concentration (IC50) on PI3K, in the assay on prostate line LNCap (LNCaP) and in the assay on breast line MDA468 were 0.89 µM, 3 µM and 3.1 µM, respectively.

For the compound `CC(C)(C)OC(=O)N1CCC[C@H](n2ncc3c(N4CCOCC4)nc(-c4ccc5[nH]ccc5c4)nc32)C1` [Compound 169], the figures for the IC50 at PI3K, with prostate line LNCap (LNCaP) and in the assay on breast line MDA468 were 0.341 µM, 2 µM and 12 µM, respectively.

Regarding `c1cc2cc(-c3nc(N4CCOCC4)c4cnn(C5CCSCC5)c4n3)ccc2[nH]1` [Compound 171], the IC50 was 0.552 µM at PI3K, 0.73 µM in the assay on prostate line LNCap and 2.9 µM in the assay with breast line MDA468.

For `Clc1ccc(CN2CCC(n3ncc4c(N5CCOCC5)nc(-c5ccc6[nH]ccc6c5)nc43)CC2)cn1` [Compound 174, 1-{1-[(6-chloropyridin-3-yl)methyl]piperidin-4-yl}-6-(1H-indol-5-yl)-4-orpholin-4-yl-1H-pyrazolo[3,4-d]pyrimidine], the IC50 on PI3K is 0.304 µM; in the assay on prostate line LNCap (LNCaP), 1 µM; in the assay with breast line MDA468, 2.8 µM.

With `Clc1ncccc1CN1CCC(n2ncc3c(N4CCOCC4)nc(-c4ccc5[nH]ccc5c4)nc32)CC1` [Compound 175], the IC50 is 0.462 µM at PI3K, 1.1 µM in the assay on prostate line LNCap (LNCaP) and 2 µM in the assay on breast line MDA468.

`COc1ccc(CN2CCC(n3ncc4c(N5CCOCC5)nc(-c5ccc6[nH]ccc6c5)nc43)CC2)cn1` [Compound 176]: the 50% inhibitory concentration (IC50) at PI3K worked out at 0.352 µM; with prostate line LNCap (LNCaP) it was 1 µM; with breast line MDA468 it was 2.6 µM.

With `COc1ncccc1CN1CCC(n2ncc3c(N4CCOCC4)nc(-c4ccc5[nH]ccc5c4)nc32)CC1` [Compound 177], the IC50 at PI3K turned out to be 0.885 µM; in the assay with prostate line LNCap (LNCaP) it was 1.3 µM; in the assay with breast line MDA468 it was 3.1 µM.

In the case of `c1ccc(CN2CCC(n3ncc4c(N5CCOCC5)nc(-c5ccc6[nH]ccc6c5)nc43)CC2)nc1` [Compound 178], the 50% inhibitory concentration (IC50) at PI3K is 0.509 µM; in the assay on prostate line LNCap (LNCaP), 0.55 µM; in the assay with breast line MDA468, 2.1 µM.

With `c1cc(CN2CCC(n3ncc4c(N5CCOCC5)nc(-c5ccc6[nH]ccc6c5)nc43)CC2)ccn1` [Compound 179], the IC50 on PI3K stood at 0.649 µM; with prostate line LNCap (LNCaP), 0.6 µM; in the assay on breast line MDA468, 1.8 µM.

Take `CC(=O)Nc1ccc(-c2nc(N3CCOCC3)c3cnn(Cc4ccccc4)c3n2)cc1` [Compound 180]: the IC50 on PI3K was found to be 0.405 µM; in the assay with prostate line LNCap (LNCaP) it was 2 µM; in the assay on breast line MDA468, 5.8 µM.

In the case of `COc1cc(-c2nc(N3CCOCC3)c3cnn(C4CCN(Cc5ccccc5)CC4)c3n2)ccc1N` [Compound 181], the figures for the IC50 on PI3K, in the assay with prostate line LNCap (LNCaP) and in the assay on breast line MDA468 were 2.48 µM, 1.5 µM and 5.5 µM, respectively.

Regarding `COc1cc(-c2nc(N3CCOCC3)c3cnn(C4CCN(Cc5ccccc5)CC4)c3n2)ccc1NC(C)=O` [Compound 182], the results for the half-maximal inhibitory concentration (IC50) on PI3K, in the assay on prostate line LNCap (LNCaP) and in the assay with breast line MDA468 were 3.93 µM, 5 µM and 4.1 µM, respectively.

`Nc1ccc(-c2nc(N3CCOCC3)c3cnn(C4CCN(Cc5ccccc5)CC4)c3n2)cc1[N+](=O)[O-]` [Compound 183, 4-[1-(1-benzylpiperidin-4-yl)-4-morpholin-4-yl-1H-pyrazolo[3,4-d]pyrimidin-6-yl]-2-nitroaniline]: the IC50 on PI3K was 1.17 µM; with prostate line LNCap (LNCaP), 11 µM; in the assay on breast line MDA468 it was 13 µM.

As for `CC(=O)Nc1ccc(-c2nc(N3CCOCC3)c3cnn(C4CCN(Cc5ccccc5)CC4)c3n2)cc1[N+](=O)[O-]` [Compound 184, N-{4-[1-(1-benzylpiperidin-4-yl)-4-morpholin-4-yl-1H-pyrazolo[3,4-d]pyrimidin-6-yl]-2-nitrophenyl}acetamide], the half-maximal inhibitory concentration (IC50) on PI3K was determined as 3.08 µM; with prostate line LNCap (LNCaP) it was 60 µM; with breast line MDA468, 60 µM.

Take `CCCCNC(=O)Nc1ccc(-c2nc(N3CCOCC3)c3cnn(C4CCN(Cc5ccccc5)CC4)c3n2)cc1` [Compound 185]: the half-inhibitory concentration (IC50) stood at 0.18 µM on PI3K, 1.2 µM in the assay with prostate line LNCap (LNCaP) and 3.9 µM in the assay on breast line MDA468.

With `CC(C)C(=O)Nc1ccc(-c2nc(N3CCOCC3)c3cnn(C4CCN(Cc5ccccc5)CC4)c3n2)cc1` [Compound 186], the IC50 amounted to 3.42 µM on PI3K, 4 µM in the assay with prostate line LNCap (LNCaP) and 3.9 µM with breast line MDA468.

With `CC(C)(C)C(=O)Nc1ccc(-c2nc(N3CCOCC3)c3cnn(C4CCN(Cc5ccccc5)CC4)c3n2)cc1` [Compound 187], the IC50 was 7.77 µM at PI3K, 35 µM with prostate line LNCap (LNCaP) and 40 µM in the assay on breast line MDA468.

On to `c1ccc(CN2CCC(n3ncc4c(N5CCOCC5)nc(-c5ccn[nH]5)nc43)CC2)cc1` [Compound 188], for which the half-maximal inhibitory concentration (IC50) at PI3K was 3 µM; in the assay with prostate line LNCap (LNCaP), 7 µM; with breast line MDA468, 19 µM.
